Measured values from patent publication US20260183274A1, “PDK1 REGULATORY COMPOUND AND COMPOSITION CONTAINING THE SAME” (PROVIBIO CO., LTD., priority 2024, published 2026).

How the values were obtained:
MRL/lpr mice = test: Lupus animal model (MRL/lpr mice); assay type: in vivo, mouse; details: for Hair growth on the facial region: 41-week-old female MRL/lpr, GO15F 30 mg/kg, GO48 1 mg/kg, GO88 0.5 mg/kg i.p. once daily, FIG. 24
Source text: The MRL/MpJ-Faslpr/J (Hereinafter Referred to as “MRL/lpr”) used in this experiment is one of the representative animal models for systemic lupus erythematosus (SLE), known to produce various autoantibodies, including antinuclear antibodies, due to the lpr (lymphoproliferation) gene.
In this invention, the period up to 9 weeks of age was considered the pre-disease stage, and the period after 23 weeks of age was considered the post-disease stage, and efficacy verification experiments using this model were conducted.
MRL/lpr mice were imported from The Jackson Laboratory and acclimatized for one week in an SPF (Specific Pathogen Free) facility maintained at a temperature of 21-24° C., humidity of 40-60%, and a 12-hour light-dark cycle (lights on at 7:00 AM, lights off at 7:00 PM).
Subsequently, female and male MRL/lpr mice were mated at a ratio of 2:1 in the same facility, and the female offspring were administered the compound GO15F of the present invention or vehicle at a dose of 30 mg/kg […]
Urine samples were collected once a week from each individual and used for analytical experiments. […]
The protein concentration in urine collected weekly from the control group or experimental group was analyzed using ‘Quick Start™ Bradford 1× Dye Reagent (Bio-Rad, Cat. #5000205).’
In each well of a 96-well plate, 5 μl of urine sample diluted with triple-distilled water and 250 μl of 1× dye reagent were added, reacted, and the absorbance was measured at 595 nm. […]
Each kidney tissue was used to isolate total RNA using TRIzol™ (Invitrozen, Cat. #15596018). RNA from each mouse was quantified at 1 μg using a micro-quantitative spectrophotometer (ThermoFisher Scientific, ND2000) and cDNA was synthesized.
The synthesized cDNA from each mouse was quantified to a concentration of 50 ng using a micro-quantitative spectrophotometer, and qPCR was performed for the cytokines ‘IL-2, IL-6, IL-10, IL-17, TNF-α, IFN-γ’ using a SYBR green probe (CFX96, BIO-RAD).
To investigate the effects of drug administration on renal tissue in MRL/lpr mice, the tissue was fixed in 10% neutral buffered formalin at room temperature, followed by stepwise ethanol penetration for dehydration. The tissue was then embedded in xylene and paraffin.
The blocked tissues were sectioned into 4 μm thick slices using a microtome, followed by deparaffinization, hydration, and staining.
Hematoxylin & Eosin staining, PAS staining, and Masson trichrome staining were performed for pathological evaluation of the tissues.
To determine the extent of IgG deposition in kidney tissue of MRL/lpr mice, immunofluorescence staining was performed using anti-IgG antibodies on paraffin-embedded kidney tissue sections, and the staining results were examined using a fluorescence microscope.
Additionally, in 41-week-old female MRL/lpr mice, the compounds GO15F (30 mg/kg), GO48 (1 mg/kg), and GO88 (0.5 mg/kg) were administered intraperitoneally once daily.
To confirm the proliferative activity of hair follicle cells in the skin tissue of these mice, the mice were sacrificed 14 days after administration of the compounds of the present invention, and Ki-67 immunohistochemistry (IHC) was performed.
For this purpose, the excised skin tissue was fixed in formalin, embedded in paraffin blocks, and stained with a Ki-67-specific antibody on tissue sections prepared as slides.

[1] = tested on: Human Osteosarcoma, Saos-2; test: Relative cell viability CCK-8, Saos-2; assay type: cell-based; details: for Relative cell viability (%), Saos-2: 48 hours
Description: (§1) Human-derived head and neck cancer cell line Fadu and osteosarcoma cell line Saos-2 were cultured in MEM medium containing 10% FBS, 100 U/mL penicillin, and 100 μg/mL streptomycin.
(§2) Following stabilization, the cells were harvested using Trypsin-EDTA treatment, centrifuged at 1,200 rpm for 3 minutes, the supernatant was removed, and the cells were resuspended in the same medium. They were then seeded into a 96-well plate (Costar 96-well cell culture plate, Corning) at 100 μL per well, and the conditions were adjusted as indicated in Table 5.
(§3) The cells were cultured in a 5% CO2 incubator at 37° C. for 24 hours, and after stabilization of the cells, each plate was washed with 200 μL of PBS per well and treated with 50 μL of culture medium per well.
(§4) After that, 10 μL of CCK-8 was added to each well, and the plate was incubated again at 37° C. in a 5% CO2 incubator for 2 hours.
(§5) In other words, when the survival rate of untreated cells (DMSO) is set at 100%, the relative cell survival rate in each group treated with the drug at different concentrations is indicated.

[2] = tested on: Human Head and Neck cancer, Fadu; test: Relative cell viability CCK-8, Fadu; assay type: cell-based; details: Fadu cells, relative to untreated cells
Description: as §1, §2, §3, §4, §5

PDK1 = target: T1, PDK1 (Homo sapiens, UniProt O15530); test: PDK1 kinase activity inhibition, IC50 (in vitro kinase assay, luminescence); assay type: biochemical; details: FIG. 4; read-out: IC50 for inhibiting PDK1 kinase activity
T1 construct: purchased Promega V9681
T1 sequence (O15530 1-556): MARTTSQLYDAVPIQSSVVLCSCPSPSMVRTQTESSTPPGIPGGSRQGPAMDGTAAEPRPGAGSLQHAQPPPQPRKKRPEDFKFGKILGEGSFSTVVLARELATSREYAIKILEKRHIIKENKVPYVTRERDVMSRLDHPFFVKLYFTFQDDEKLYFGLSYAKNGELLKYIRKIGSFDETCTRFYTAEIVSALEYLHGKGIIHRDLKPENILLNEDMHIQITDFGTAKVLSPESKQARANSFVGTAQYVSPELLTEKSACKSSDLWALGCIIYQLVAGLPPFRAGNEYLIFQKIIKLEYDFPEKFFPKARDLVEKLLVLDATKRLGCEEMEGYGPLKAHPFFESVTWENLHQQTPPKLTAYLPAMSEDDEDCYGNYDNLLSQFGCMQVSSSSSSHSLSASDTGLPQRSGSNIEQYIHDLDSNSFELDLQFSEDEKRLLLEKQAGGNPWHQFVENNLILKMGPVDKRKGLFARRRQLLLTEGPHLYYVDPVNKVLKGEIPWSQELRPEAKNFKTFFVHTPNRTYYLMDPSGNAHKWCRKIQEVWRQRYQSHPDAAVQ
Description: As shown in the table below, this invention establishes an in vitro kinase assay system to quantitatively evaluate PDK1 kinase activity inhibition, and utilizes this system to compare and analyze the activity of new PDK1 inhibitor candidate compounds.
Specifically, after reacting ATP (100 μM), substrate (PDKtide, 0.5 μg/μL), and PDK1 enzyme (30 ng) at a specific concentration, the difference in ATP consumption between the group treated with each candidate compound and the DMSO control group was measured using luciferase-based luminescence signals (RLU).
Additionally, enzyme kinetics analysis was performed to quantitatively analyze the effect of the compounds of the present invention on the enzymatic activity of PDK1 (3-Phosphoinositide-dependent protein kinase-1) and to confirm the inhibition pattern.
Prior to the analysis, the half-maximal inhibitory concentration (IC50) values of the compounds GO15F, GO86, and GO88 of the present invention for inhibiting PDK1 kinase activity were determined, and the results are shown in FIG. 4.

Nc1ncccc1C(=O)NCCCCCCCCCCCCN1CCOCC1 [Compound 2, 2-Amino-N-(12-morpholin-4-yl-dodecyl)-nicotinamide]
Hair growth on the facial region (MRL/lpr mice): hair growth was confirmed

Nc1ncccc1C(=O)NCCCCCCCCCCCCN1CCNCC1 [Compound 5, 2-Amino-N-(12-(piperazin-1-yl)dodecyl)-nicotinamide]
Relative cell viability (%), Saos-2 ([1]; 1 μM, listed as GO78, 1 µM): 28.36%
Relative cell viability (%), Saos-2 ([1]; 10 μM, listed as GO78, 10 µM): 33.69%
Relative cell viability (%), Saos-2 ([1]; 30 μM, listed as GO78, 30 µM): 19.77%
Relative cell viability (%), Saos-2 ([1]; 50 μM, listed as GO78, 50 µM): 2.60%
Relative cell viability (%) ([2]; 10 μM, listed as GO78, 10 µM): 6.63%
Relative cell viability (%) ([2]; 30 μM, listed as GO78, 30 µM): 4.93%
Relative cell viability (%) ([2]; 50 μM, listed as GO78, 50 µM): 0.99%
viability at 1 µM ([2]; Homo sapiens, FaDu, 1 μM): 4.18%

CC1(C)CN(CCCCCCCCCCCCC(=O)Nc2nc(N)c3[nH]cnc3n2)CCO1 [Compound 11, 12-[4-(2,2-dimethylmorpholin-4-yl)]dodecyl-N-(6-aminopurine-2-yl) carboxamide]
Relative cell viability (%), Saos-2 ([1]; 1 μM): 36.73%
Relative cell viability (%), Saos-2 ([1]; 10 μM): 24.98%
Relative cell viability (%), Saos-2 ([1]; 30 μM): 16.00%
Relative cell viability (%), Saos-2 ([1]; 50 μM): 36.73%
Relative cell viability (%) ([2]; 1 μM): 2.08%
Relative cell viability (%) ([2]; 10 μM): 9.68%
Relative cell viability (%) ([2]; 30 μM): 8.51%
Relative cell viability (%) ([2]; 50 μM): 4.78%
IC50 (PDK1): 11.3 nM

Nc1ncccc1C(=O)NCCCCCCCCCCCCN1CCNCC1 [Compound 14, 2-Amino-N-(12-(piperazin-1-yl)dodecyl)nicotinamide]
Relative cell viability (%), Saos-2 ([1]; 50 μM, listed as GO88, 50 µM): 0.00%
viability at 1 µM ([1]; Homo sapiens, SAOS-2, 48 h, 1 μM): 47.1%
viability at 10 µM ([1]; Homo sapiens, SAOS-2, 48 h, 10 μM): 34.2%
viability at 30 µM ([1]; Homo sapiens, SAOS-2, 48 h, 30 μM): 16.3%
Hair growth on the facial region (MRL/lpr mice): hair growth was confirmed
Relative cell viability (%) ([2]; 1 μM, listed as GO88, 1 µM): 7.05%
Relative cell viability (%) ([2]; 10 μM, listed as GO88, 10 µM): 73.25%
Relative cell viability (%) ([2]; 30 μM, listed as GO88, 30 µM): 57.64%
Relative cell viability (%) ([2]; 50 μM, listed as GO88, 50 µM): 7.08%
IC50 (PDK1): 13 nM

Nc1nc(NC(=O)CCCCCCCCCCCCN2CCN(CCO)CC2)nc2nc[nH]c12 [Compound 15, 12-[4-(2-hydroxyethyl)piperazin-1-yl]dodecyl-N-(6-aminopurine-2-yl) carboxamide]
viability at 1 µM ([2]; Homo sapiens, FaDu, 1 μM): 4.15%
viability at 10 µM ([2]; Homo sapiens, FaDu, 10 μM): 29.3%
viability at 30 µM ([2]; Homo sapiens, FaDu, 30 μM): 41.5%
viability at 50 µM ([2]; Homo sapiens, FaDu, 50 μM): 9.44%

Nc1ncccc1C(=O)NCCCCCCCCCCCCF [Compound 57, 2-Amino-N-(12-fluoro-dodecyl)-nicotinamide]
Protein concentration in urine (proteinuria) (MRL/lpr mice; 30 mg/kg once daily, vs control MRL/lpr, FIG. 16): significantly lower than that in the control group
Hair growth on the facial region (MRL/lpr mice): hair growth was confirmed
B cells, T cells and macrophages in spleen (flow cytometry) (MRL/lpr mice; FIG. 19): reduced the increased B cells, T cells, and macrophages
IgG deposition in kidney tissue (immunofluorescence) (MRL/lpr mice; FIG. 22): significantly lower
Renal pathological tissue staining (glomerular capillary loops) (MRL/lpr mice; H&E, PAS, Masson trichrome, FIG. 21): the glomerular capillary loops were well maintained
Concentration of anti-dsDNA IgG in blood (MRL/lpr mice; serum at necropsy (23 weeks), vs control MRL/lpr, FIG. 17): significantly lower
Total IgG concentration in blood (MRL/lpr mice; serum at necropsy, vs control MRL/lpr, FIG. 18): significantly lower
IC50 (PDK1): 380 nM
